Source: patent US11833156B2, “Heterocyclic compounds as pad inhibitors” (JUBILANT EPIPAD LLC, priority 2017, dated 2023)
pIC50: −log10 of the molar value.

biological target: T1, PAD4 enzyme (Homo sapiens (Human), UniProt Q9UM07); assay: Ammonia Release Biochemical Assay (citrullination detected via ammonia release); settings: PAD4 120 nM, substrate BAEE, 60-min preincubation, read-out: NH3 release
Experimental: Ammonia Release Biochemical Assay
Citrullination assay was detected via ammonia release. PAD4 enzyme was diluted to 120 nM in assay buffer (100 mM HEPES, 50 mM NaCl, 2 mM DDT, 0.6 mg/mL BSA, pH 7.4) added to wells containing various concentration of compound or DMSO vehicle (1% final) in black 384 well plate. Following a 60-min preincubation at room temperature, the reaction was initiated by the addition of substrate (1.5 mM BAEE in 200 mM HEPES, 50 mM NaCl, 350 uM CaCl2, 2 mM, pH 7.4). The reaction was stopped after 60 min by addition of stop/detection buffer containing 50 mM EDTA, 2.6 mM of o-phthaladehyde and 2.6 mM DTT. Assay was incubated at room temperature for 90 min before measuring fluorescence's (λex 405/λem 460 nm) on Tecan reader. IC50 was calculated using XL-fit software model 205. (Ref: Nat Chem Biol. 2015 March; 11(3):189-91).

T1 sequence (Q9UM07 whole entry): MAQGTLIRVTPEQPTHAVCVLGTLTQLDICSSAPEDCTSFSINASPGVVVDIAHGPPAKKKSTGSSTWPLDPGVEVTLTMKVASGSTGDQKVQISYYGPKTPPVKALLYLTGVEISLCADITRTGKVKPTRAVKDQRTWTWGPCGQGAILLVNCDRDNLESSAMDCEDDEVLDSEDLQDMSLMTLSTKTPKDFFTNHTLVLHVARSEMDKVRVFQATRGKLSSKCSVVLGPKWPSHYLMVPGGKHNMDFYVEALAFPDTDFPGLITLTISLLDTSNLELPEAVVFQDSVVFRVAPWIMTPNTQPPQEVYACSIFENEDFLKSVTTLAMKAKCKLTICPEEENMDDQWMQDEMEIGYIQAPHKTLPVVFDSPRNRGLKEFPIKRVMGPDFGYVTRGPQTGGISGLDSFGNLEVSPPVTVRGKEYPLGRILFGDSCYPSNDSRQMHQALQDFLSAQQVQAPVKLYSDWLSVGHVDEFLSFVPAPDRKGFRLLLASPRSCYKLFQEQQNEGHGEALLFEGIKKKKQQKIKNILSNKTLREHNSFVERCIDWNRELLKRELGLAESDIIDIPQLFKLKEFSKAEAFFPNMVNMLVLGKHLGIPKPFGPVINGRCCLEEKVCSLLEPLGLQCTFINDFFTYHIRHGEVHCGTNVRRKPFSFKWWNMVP

SMILES	pIC50
N[C@@H]1CCCN(C(=O)c2cc3c4c(c2)nc(-c2cc5cc(/C=C/c6ccccc6)ccc5n2CC2CC2)n4CCO3)C1 [Example 58, (R,E)-(3-aminopiperidin-1-yl)(2-(1-(cyclopropylmethyl)-5-styryl-1H-indol-2-yl)-3,4-dihydro-5-oxa-1,2a-diazaacenaphthylen-7-yl)methanone]	5.00 to 6.00
N[C@@H]1CCCN(C(=O)c2cc3c4c(c2)nc(-c2cc5cc(-c6cccnc6)ccc5n2CC2CC2)n4CCN3)C1 [Example 68, (R)-(3-aminopiperidin-1-yl)(2-(1-(cyclopropylmethyl)-5-(pyridin-3-yl)-1H-indol-2-yl)-5,6-dihydro-4H-imidazo [1,5,4-de]quinoxalin-8-yl)methanone]	5.00 to 6.00
CCOCCS(=O)(=O)N1CCn2c(-c3cc4ccccc4n3CC3CC3)nc3cc(C(=O)N4CCC[C@@H](N)C4)cc1c32 [Example 83, (R)-(3-aminopiperidin-1-yl)(2-(1-(cyclopropylmethyl)-1H-indol-2-yl)-6-((2-ethoxyethyl)sulfonyl)-5,6-dihydro-4H-imidazo[1,5,4-de]quinoxalin-8-yl)methanone]	5.00 to 6.00
N[C@@H]1CCCN(C(=O)c2cc3c4c(c2)nc(-c2cc5ccc(CO)cc5n2CC2CC2)n4CCO3)C1 [Example 61, (R)-(3-aminopiperidin-1-yl)(2-(1-(cyclopropylmethyl)-6-(hydroxymethyl)-1H-indol-2-yl)-3,4-dihydro-5-oxa-1,2a-diazaacenaphthylen-7-yl)methanone]	≥ 6.00
N[C@@H]1CCCN(C(=O)c2cc3c4c(c2)nc(-c2cc5cccc(Cl)c5n2Cc2cncnc2)n4CCO3)C1 [Example 88, (R)-(3-aminopiperidin-1-yl)(2-(7-chloro-1-(pyrimidin-5-ylmethyl)-1H-indol-2-yl)-3,4-dihydro-5-oxa-1,2a-diazaacenaphthylen-7-yl)methanone]	5.00 to 6.00
N[C@@H]1CCCN(C(=O)c2cc3c4c(c2)nc(-c2cc5ccc(F)cc5n2Cc2ncccc2F)n4CCO3)C1 [Example 35, (R)-(3-aminopiperidin-1-yl)(2-(6-fluoro-1-((3-fluoropyridin-2-yl)methyl)-1H-indol-2-yl)-3,4-dihydro-5-oxa-1,2a-diazaacenaphthylen-7-yl)methanone]	≥ 6.00
N[C@@H]1CCCN(C(=O)c2cc3c4c(c2)nc(-c2cc5ccccc5n2CC2CCNCC2)n4CCO3)C1 [Example 43, (R)-(3-aminopiperidin-1-yl)(2-(1-(piperidin-4-ylmethyl)-1H-indol-2-yl)-3,4-dihydro-5-oxa-1,2a-diazaacenaphthylen-7-yl)methanone]	≤ 5.00
N[C@@H]1CCCN(C(=O)c2cc3c4c(c2)nc(-c2cc5cccc(Cl)c5n2CC(F)F)n4CCO3)C1 [Example 56, (R)-(3-aminopiperidin-1-yl)(2-(7-chloro-1-(2,2-difluoroethyl)-1H-indol-2-yl)-3,4-dihydro-5-oxa-1,2a-diazaacenaphthylen-7-yl)methanone]	≥ 6.00
CC1(C)COc2cc(C(=O)N3CCC[C@@H](N)C3)cc3nc(-c4cc5ccccc5n4CC4CC4)n1c23 [Example 62, (R)-(3-aminopiperidin-1-yl)(2-(1-(cyclopropylmethyl)-1H-indol-2-yl)-3,3-dimethyl-3,4-dihydro-5-oxa-1,2a-diazaacenaphthylen-7-yl)methanone]	≤ 5.00
CC(=O)N1CCn2c(-c3cc4ccccc4n3CC3CC3)nc3cc(C(=O)N4CCC[C@@H](N)C4)cc1c32 [Example 85]	≥ 6.00
N[C@@H]1CCCN(C(=O)c2cc3c4c(c2)nc(-c2cc5ccc(F)cc5n2CC2CC2)n4CCO3)C1 [Example 28, (R)-(3-aminopiperidin-1-yl)(2-(1-(cyclopropylmethyl)-6-fluoro-1H-indol-2-yl)-3,4-dihydro-5-oxa-1,2a-diazaacenaphthylen-7-yl)methanone]	≥ 6.00
N[C@@H]1CCCN(C(=O)c2cc3c4c(c2)nc(-c2cc5ccc(F)c(Cl)c5n2CC2CC2)n4CCO3)C1 [Example 87, (R)-(3-aminopiperidin-1-yl)(2-(7-chloro-1-(cyclopropylmethyl)-6-fluoro-1H-indol-2-yl)-3,4-dihydro-5-oxa-1,2a-diazaacenaphthylen-7-yl)methanone]	≥ 6.00
N[C@@H]1CCCN(C(=O)c2cc3c4c(c2)nc(-c2cc5ccccc5n2Cc2ncccn2)n4CCO3)C1 [Example 27, (R)-(3-aminopiperidin-1-yl)(2-(1-(pyrimidin-2-ylmethyl)-1H-indol-2-yl)-3,4-dihydro-5-oxa-1,2a-diazaacenaphthylen-7-yl)methanone]	≥ 6.00

Now from value to compound:

pIC50	SMILES
≥ 6.00	COc1ccc(Cn2c(-c3nc4cc(C(=O)N5CCC[C@@H](N)C5)cc5c4n3CCO5)cc3cc(F)ccc32)cc1 [Example 46, (R)-(3-aminopiperidin-1-yl)(2-(5-fluoro-1-(4-methoxybenzyl)-1H-indol-2-yl)-3,4-dihydro-5-oxa-1,2a-diazaacenaphthylen-7-yl)methanone]
≥ 6.00	Cc1csc(Cn2c(-c3nc4cc(C(=O)N5CCC[C@@H](N)C5)cc5c4n3CCO5)cc3ccccc32)n1 [Example 59, (R)-(3-aminopiperidin-1-yl)(2-(1-((4-methylthiazol-2-yl)methyl)-1H-indol-2-yl)-3,4-dihydro-5-oxa-1,2a-diazaacenaphthylen-7-yl)methanone]
≥ 6.00	CN1CCn2c(-c3cc4cc(F)ccc4n3CC3CC3)nc3cc(C(=O)N4CCC[C@@H](N)C4)cc1c32 [Example 75, (R)-(3-aminopiperidin-1-yl)(2-(1-(cyclopropylmethyl)-5-fluoro-1H-indol-2-yl)-6-methyl-5,6-dihydro-4H-imidazo[1,5,4-de]quinoxalin-8-yl)methanone]
≥ 6.00	N[C@@H]1CCCN(C(=O)c2cc3c4c(c2)nc(-c2cc5ccccc5n2Cc2ccncc2F)n4CCO3)C1 [Example 24, (R)-(3-aminopiperidin-1-yl)(2-(1-((3-fluoropyridin-4-yl)methyl)-1H-indol-2-yl)-3,4-dihydro-5-oxa-1,2a-diazaacenaphthylen-7-yl)methanone]
≥ 6.00	COc1ccc2cc(-c3nc4cc(C(=O)N5CCC[C@@H](N)C5)cc5c4n3CCN5C)n(CC3CC3)c2c1 [Example 74, (R)-(3-aminopiperidin-1-yl)(2-(1-(cyclopropylmethyl)-6-methoxy-1H-indol-2-yl)-6-methyl-5,6-dihydro-4H-imidazo[1,5,4-de]quinoxalin-8-yl)methanone]
≥ 6.00	N[C@@H]1CCCN(C(=O)c2cc3c4c(c2)nc(-c2cc5ccccc5n2CC2CC2)n4CCN3C2CC2)C1 [Example 78, (R)-(3-aminopiperidin-1-yl)(6-cyclopropyl-2-(1-(cyclopropylmethyl)-1H-indol-2-yl)-5,6-dihydro-4H-imidazo[1,5,4-de]quinoxalin-8-yl)methanone]
≥ 6.00	CC(C)Cn1c(-c2nc3cc(C(=O)N4CCC[C@@H](N)C4)cc4c3n2CCO4)cc2ccccc21 [Example 31, (R)-(3-aminopiperidin-1-yl)(2-(1-isobutyl-1H-indol-2-yl)-3,4-dihydro-5-oxa-1,2a-diazaacenaphthylen-7-yl)methanone]
≥ 6.00	N[C@@H]1CCCN(C(=S)c2cc3c4c(c2)nc(-c2cc5ccccc5n2CC2CC2)n4CCN3)C1 [Example 86, (R)-(3-aminopiperidin-1-yl)(2-(1-(cyclopropylmethyl)-1H-indol-2-yl)-5,6-dihydro-4H-imidazo [1,5,4-de]quinoxalin-8-yl)methanethione]
≥ 6.00	COc1ccc2cc(-c3nc4cc(C(=O)N5CCC[C@@H](N)C5)cc5c4n3CCO5)n(Cc3ncccc3F)c2c1 [Example 33, (R)-(3-aminopiperidin-1-yl)(2-(1-((3-fluoropyridin-2-yl)methyl)-6-methoxy-1H-indol-2-yl)-3,4-dihydro-5-oxa-1,2a-diazaacenaphthylen-7-yl)methanone]
≥ 6.00	COc1ccc(Cn2c(-c3nc4cc(C(=O)N5CCC[C@@H](N)C5)cc5c4n3CCO5)cc3ccc(F)cc32)cc1 [Example 50, (R)-(3-aminopiperidin-1-yl)(2-(6-fluoro-1-(4-methoxybenzyl)-1H-indol-2-yl)-3,4-dihydro-5-oxa-1,2a-diazaacenaphthylen-7-yl)methanone]
≥ 6.00	COc1ccc2cc(-c3nc4cc(C(=O)N5CCC[C@@H](N)C5)cc5c4n3CCO5)n(CC3CC3)c2c1 [Example 23, (R)-(3-aminopiperidin-1-yl)(2-(1-(cyclopropylmethyl)-6-methoxy-1H-indol-2-yl)-3,4-dihydro-5-oxa-1,2a-diazaacenaphthylen-7-yl)methanone]

biological target: T1, PAD4 enzyme; assay: FP Binding Assay; settings: not given
Experimental: Binding of compounds with PAD4 enzyme was detected by FP assay. PAD4 enzyme was diluted to 1 uM in assay buffer (100 mM HEPES, 50 mM NaCl, 1 mM DTT, 5% Glycerol and 1 mM CHAPS) and added to wells containing various concentration of compounds or DMSO vehicle (1%) in a 384 well black plate. 10 nM of fluorescein labelled probe (JPAD-00085) was added to the plate. Assay plate was incubated for 60 minutes at room temperature before measuring FP reading at FP module (λex 485/λem 535 nm) on Pherastar. IC50 was calculated using XL-fit software model 205. (Ref: Nat Chem Biol. 2015 March; 11(3):189-91).

inhibition of PAD4 enzyme activity in FP Binding assay	SMILES
actively inhibiting PAD4 enzyme activity	N[C@@H]1CCCN(C(=O)c2cc3c4c(c2)nc(-c2cc5cc(F)c(F)cc5n2CC2CC2)n4CCN3)C1 [Example 77, (R)-(3-aminopiperidin-1-yl)(2-(1-(cyclopropylmethyl)-5,6-difluoro-1H-indol-2-yl)-5,6-dihydro-4H-imidazo[1,5,4-de]quinoxalin-8-yl)methanone]
